How the values were obtained:
Type in all cases: in vivo, Drosophila
[1] = system: mushroom body structure in dfmr1 null fly brain; assay: Staining and analysis of mushroom body morphology; conditions: for mushroom body defects of dfmr1 mutant adults (in words): 0- to 2-day-old adults developed on LF supplemented with drug at optimal viability dose; for brain structural abnormality (mushroom body formation) in treated dFmr1 flies (in words) / percentage of normal brains (mushroom body) after treatment: Example 2; for percentage of normal brains (mushroom body) after treatment: dFmr1 flies, 27% without treatment
Description: A striking morphological phenotype of dfmr1 deficiency in Drosophila involves structural abnormalities of the mushroom body in the fly brain. The mushroom body, important for Drosophila learning and memory, is an axon-like fiber structure composed of three paired neuronal lobes (the α, β, and γ lobes). In dfmr1 null flies, the β lobes, which normally terminate at the midline cleft, often cross through the midline. In addition, dfmr1 null flies also have missing or misdirected α and β lobes, as well as truncated or over-branched lobes. […] To test whether compounds identified in the viability screen could rescue the mushroom body morphology, 0- to 2-day-old dfmr1 mutant adults were examined that developed on LF supplemented with four of the nine compounds identified above (GABA, nipecotic acid, creatinine, and isopilocarpine).
Brains from 0- to-2-day-old adults were dissected, fixed, and stained. Anti-Fascicilin II (ID4, Developmental Studies Hybridoma Bank) was used at 1:10 dilution and Alexa anti-mouse secondary antibody (Molecular probes) 1:100. Confocal microscopy was performed using a Leica Scanning laser confocal microscope. Neuronal lobe abnormalities were analyzed and scored by obtaining optical stacks of the α and β lobes as described.

[2] = system: Futsch; assay: Quantitative Western analysis of Futsch protein in fly head lysates; conditions: flies raised on LF with drug at effective dosage
Description: FIG. 3A illustrates a representative Western blot showing Futsch expression in w^1118, dfmr1^3+/−, and dfmr1^3−/− head lysates. Flies were raised on LF with or without drug supplements using the effective dosages. Heads from 0- to 2-day old adult flies were used to prepare protein lysates. β-actin was used as a loading control.
FIG. 3B illustrates the quantification of relative Futsch protein level from multiple Western blots using Kodak Imaging System software. The quantifications were based on duplicate Western analyses obtained from triplicate collections of […] from two separate drug treatments (6 sets of samples total). The futsch levels were first normalized to β-actin levels, then plotted as the percentage of change of each treatment/genotype compared to w^1118 (no drug), which was set as 100%.
Additionally, it was tested whether the same four compounds could rescue the biochemical phenotype of Futsch over-expression that is associated with dfmr1 deficiency. The mRNA of Futsch is normally bound and translationally repressed by dFmrp. Thus, loss of dFmrp results in excess Futsch translation.
Quantitative Western analyses were performed. Briefly, 0- to 2-day-old adult Drosophila heads were obtained, and homogenized in lysis buffer (10 mM Tris (pH 7.5), 150 mM NaCl, 30 mM EDTA (pH 8.0), 0.5% Triton X-100, and 1× complete protease inhibitor (Boehringer Mannheim). 30 fly heads were collected per sample. 10 μg total protein lysates were subjected to SDS-PAGE electrophoresis on a 4%-20% gradient Tris-HCl gel (Bio-Rad). Monoclonal anti-22C10 against Futsch (1:500) was purchased from the Developmental Studies Hybridoma Bank (DSHB), University of Iowa. For the loading control, an antibody against […] (Abcam) was used at a final concentration of 0.8 μg/ml. The signals were quantified using the Kodak Imaging System software.

[3] = system: dfmr1 null embryos; assay: Initial small molecule screen: pupae/adult recovery of dfmr1 null embryos on commercial food (CF); conditions: 12 null embryos per vial, CF supplemented with 40 μM compound, 25° C., 10 to 15 days
Description: Since the rescue of dfmr1 null lethality is an easily scored phenotype, a relatively high throughput strategy was designed to screen chemical libraries for small molecules that can restore the viability of dfmr1 null flies raised on CF (FIG. 1D). In order to seed test vials with dfmr1 null embryos only, the dfmr1 mutation was balanced with a GFP-TM6C chromosome (w^1118; dfmr1^3/Kr: GFP, TM6C). This allowed sorting of the null dfmr1 mutants from other embryos by the absence of GFP fluorescence using a flow cytometry embryo sorter (COPAS SELECT). […]
The Spectrum Collection™ compound library was obtained from MicroSource Discovery Systems, Inc. Drugs used in larger quantities for confirmation and subsequent analysis were obtained from Sigma (St. Louis, Mo.) or Tocris-Cookson (UK). […]
(§1) For the initial screen, 12 dfmr13/dfmr13 (GFP−) embryos were placed in each well of a 96 well plate with CF+40 μM of individual drugs. 96-well plates were kept at 25° C. and the percentage of pupae and adults recovered was scored. […] Adult progeny were counted and the relative viability of homozygous null flies was scored as the percentage of viable adult progeny raised on CF+ drug compared to the progeny on LF alone.

[4] = system: homozygous dfmr1-deficient flies; assay: Fly viability assay: rescue of homozygous dfmr1 flies on CF (JAZMIX) plus drug; conditions: for recovery of homozygous dFmr1 flies: 0% on JAZMIX food alone
Protocol: In particular, embodiments of the present disclosure include methods of screening compounds using a drosophila (fruit fly) based compound screen to identify drug candidates for the treatment of FMRP-loss related disorders.
The homozygous embryos are placed into an appropriate container (e.g., a 96-well container) containing a food with a lethal amount of glutamate and with or without a compound from a library of drugs candidates. The embryos were incubated at certain conditions for a certain amount of time (e.g., at about 25° C. for about 10 days) to allow embryonic development. The efficacy of the drug candidate is determined by scoring the number of pupae formation or the emergence of adult flies after a certain time frame. Files or pupae that came out from food with a nonlethal amount of glutamate were used as positive control, and flies or pupae that came out from food with lethal amounts of glutamate without drugs were used as negative control.
The separated homozygous embryos are then transferred to a regular fly culture vials or a 96-well container (e.g., 20 embryos per well) containing food with a lethal amount of glutamate with or without the drug (e.g., 300 μl of pre-mixed food and the drug). The embryos were incubated at 25° C. for about 10 days to allow embryonic development. The formation of pupae or adult flies can be directly quantified by visual inspection. Efficacy of drugs is determined by scoring the number of pupae formation or the emergence of adult flies after 10 days. Additional details regarding the active compositions and disorders are described in the Examples below.
(§2) To determine the cause of the observed CF lethality of dfmr1-deficient flies, HPLC amino acid analyses was performed on aqueous extracts of CF and LF food preparations and noted that the CF contained 1.8-fold more glutamate than the LF (FIG. 4). Since this could result in excess glutamate signaling, exacerbating the consequences of dFmrp loss, it was next determined whether supplementing LF with additional glutamate could decrease the viability of dfmr1-deficient flies. […] Indeed, 10 μM MPEP added to the CF rescued the homozygous deficient flies to approximately 60% of their normal viability on LF (FIG. 1C).
Fifteen of those compounds, as well as the MPEP-positive control, recovered pupal development from at least 25% of the seeded embryos (FIG. 5, Table 1). Each of these top 15 compounds underwent further validation using a larger-scale viability assay. Each vial was seeded with 100 embryos from dfmr1 heterozygous crosses, and adult progeny of both homozygous and heterozygous genotypes were counted 10 days later. Nine of the 15 compounds were validated and, for each of these, a dose-response analysis was performed to optimize the dosage (FIG. 5, Table 1). Using the optimal viability dose for each validated compound, it was explored whether other established phenotypes of dfmr1 deficiency are influenced by a selection of these compounds.
as §1

[5] = system: dfmr1 homozygous null progeny; assay: Viability of flies on laboratory food (LF) supplemented with glutamate; conditions: glutamate added to LF, p<0.005
Protocol: FIG. 1B illustrates dfmr1-deficient flies raised on LF are sensitive to supplemented glutamate. Embryos of w^1118, dfmr1^3+/− and dfmr1^3−/− were allowed to develop on LF supplemented with additional glutamate. Relative viability was calculated within each genotype as the percentage of viable adult progeny raised on LF supplemented with glutamate compared to progeny raised on LF alone. (For w^1118 only: anything above 100% was indicated as 100%). (Error bar indicate SEM; *=P<0.005).
as §2

SMILES: NCCCC(=O)O [GABA]
- mushroom body defects of dfmr1 mutant adults (in words) [1]: significantly improved
- elevated Futsch protein level in dfmr1 null flies (in words) [2]: did not significantly influence

SMILES: Cc1cccc(C#Cc2ccccc2)n1 [MPEP]
- mushroom body defects of dfmr1 mutant adults (in words) [1]: rescued
- pupal development recovered, percentage of the seeded embryos [3]: at least 25%
- elevated Futsch protein level in dfmr1 null flies (in words) [2]: significantly reduced
- viability of homozygous deficient flies relative to their normal viability on LF ([4]; 10 μM MPEP added to CF): approximately 60%
- dfmr1^3−/− viability on CF (in words) ([4]; CF supplemented with MPEP (10 μM), FIG. 1C, P<0.005): improved

SMILES: CC[C@@H]1C(=O)OC[C@@H]1Cc1cncn1C [Pilocarpine nitrate]
- brain structural abnormality (mushroom body formation) in treated dFmr1 flies (in words) [1]: significant suppression
- percentage of normal brains (mushroom body) after treatment [1]: 79%
- recovery of homozygous dFmr1 flies ([4]; 5 microM in JAZMIX food): 88.5%

SMILES: CN1CC(=O)NC1=N [creatinine]
- percentage of normal brains (mushroom body) after treatment [1]: 85%
- recovery of homozygous dFmr1 flies ([4]; 40 microM in JAZMIX food): 123.2%

SMILES: N[C@@H](CCC(=O)O)C(=O)O [glutamate]
- viability of dfmr1 homozygous null progeny [5]: dose-dependent decline

SMILES: CC[C@H]1C(=O)OC[C@@H]1Cc1cncn1C [isopilocarpine]
- mushroom body defects of dfmr1 mutant adults (in words) [1]: significantly improved
- elevated Futsch protein level in dfmr1 null flies (in words) [2]: completely rescued

SMILES: O=C(O)C1CCCNC1 (centres unmarked) [nipecotic acid]
- mushroom body defects of dfmr1 mutant adults (in words) [1]: significantly improved
- brain structural abnormality (mushroom body formation) in treated dFmr1 flies (in words) [1]: significant suppression
- percentage of normal brains (mushroom body) after treatment [1]: 73%
- elevated Futsch protein level in dfmr1 null flies (in words) [2]: did not significantly influence
- recovery of homozygous dFmr1 flies ([4]; 40 microM in JAZMIX food): 84%

Source: patent publication US20150174112A1, “COMPOSITIONS FOR TREATING FRAGILE X AND OTHER DISORDERS METHODS OF USE THEREOF, AND SCREENING FOR COMPOUNDS FOR FRAGILE X AND OTHER DISORDERS” (EMORY UNIVERSITY, priority 2005, published 2015)
